US12252481B2, “Anti-viral compounds” (Aligos Therapeutics, Inc., priority 2021, dated 2025)

Experiments:
SARS-Cov-2 3CLpro = target: T1, SARS-Cov-2 3CLpro (Severe acute respiratory syndrome coronavirus 2, UniProt P0DTD1); assay: biochemical; settings: 3CLpro, 30 mins preincubation, SAMDI-MS; read-out: SARS-Cov-2 IC50 (class)
T1 construct: 3CLpro and HRV3C was added using a Multidrop Combi

HRV3C = target: T2, HRV3C (Human rhinovirus 14, UniProt P03303); assay: biochemical; design: species or system HRV; settings: HRV3C, 30 mins preincubation, SAMDI-MS; read-out: HRV IC50 (bound)
T2 construct: 3CLpro and HRV3C was added using a Multidrop Combi

[1] = tested on: human beta-coronavirus OC43; assay: OC43 coronavirus antiviral assay in HeLa cells (cytopathic effect, cell-titer-glo); type: cell-based; settings: Betacoronavirus 1, OC43, HeLa, 144 h, 6 days at 33° C., read-out: EC50 (class)
[2] = tested on: B.1.1.7 lineage SARS-CoV-2; assay: microbe, parasite or virus in culture; type: cell-based; settings: Severe acute respiratory syndrome coronavirus 2, 96 h; read-out: A549-dual_ACE2_TMPRSS2 (EC50)

T2 sequence (P03303 1538-1719): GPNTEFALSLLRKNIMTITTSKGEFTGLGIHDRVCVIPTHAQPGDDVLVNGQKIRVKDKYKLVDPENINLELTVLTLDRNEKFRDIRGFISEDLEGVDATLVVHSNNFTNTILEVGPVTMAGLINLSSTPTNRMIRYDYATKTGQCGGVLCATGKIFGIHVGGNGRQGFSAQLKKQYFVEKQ

CC(C)(C)[C@H](NC(=O)C(F)(F)F)C(=O)N1C[C@@H]2[C@H]3C[C@H](C[C@@H]3F)[C@@H]2[C@H]1C(=O)N[C@H](C#N)C[C@@H]1OCCNC1=O [Compound 119]
IC50 (SARS-Cov-2 3CLpro): 20 to 200 nM | IC50 (HRV3C): > 500 nM | EC50 [1]: 100 to 1000 nM | EC50 [2]: 100 to 1000 nM

CC(C)(C)[C@H](NC(=O)C(F)(F)C(F)(F)F)C(=O)N1C[C@H]2[C@@H]([C@H]1C(=O)N[C@H](C#N)C[C@@H]1OCCNC1=O)[C@H]1C=C[C@@H]2C1 [Compound 115, (1S,3aR,4S,7R,7aS)-N-((S)-1-cyano-2-((S)-3-oxomorpholin-2-yl)ethyl)-2-((S)-3,3-dimethyl-2-(2,2,3,3,3 pentafluoropropanamido)butanoyl)-2,3,3a,4,7,7a-hexahydro-1H-4,7-methanoisoindole-1-carboxamide]
IC50 (SARS-Cov-2 3CLpro): < 20 nM | IC50 (HRV3C): > 500 nM | EC50 [1]: < 100 nM | EC50 [2]: < 100 nM

CC(C)(C)[C@H](NC(=O)C(F)(F)F)C(=O)N1C[C@@H]2[C@@H]3CC[C@@H](C3)[C@@H]2[C@H]1C(=O)N[C@H](C#N)CC1CC2(CC(F)(F)C2)NC1=O (stereo partly drawn) [Compound 104, (1S,2S,3S,6R,7R)—N-[(1S)-1-cyano-2-{2,2-difluoro-6-oxo-5-azaspiro[3.4]octan-7-yl}ethyl]-4-[(2S)-3,3-dimethyl-2-(2,2,2-trifluoroacetamido)butanoyl]-4-azatricyclo[5.2.1.0^{2,6}]decane-3-carboxamide]
IC50 (SARS-Cov-2 3CLpro): < 20 nM | IC50 (HRV3C): > 500 nM | EC50 [1]: 100 to 1000 nM | EC50 [2]: < 100 nM

CC(C)(C)[C@H](NC(=O)C(F)(F)F)C(=O)N1C[C@H]2[C@@H]([C@H]1C(=O)N[C@H](C#N)C[C@@H]1CCNC1=O)[C@H]1C=C[C@@H]2C1O (mixture of isomers) [Example 90, (1R,2R,3S,6S,7S)—N-[(1S)-1-cyano-2-[(3S)-2-oxopyrrolidin-3-yl]ethyl]-4-[(2S)-3,3-dimethyl-2-(2,2,2-trifluoroacetamido)butanoyl]-10-hydroxy-4-azatricyclo[5.2.1.0^{2,6}]dec-8-ene-3-carboxamide]
IC50 (SARS-Cov-2 3CLpro): 20 to 200 nM | IC50 (HRV3C): > 10000 nM | EC50 [2]: 1000 to 10000 nM

CC(C)(C)[C@H](NC(=O)C(F)(F)C(F)(F)F)C(=O)N1C[C@@H]2[C@H]3C[C@@H]([C@@H]2[C@H]1C(=O)N[C@H](C#N)C[C@@H]1OCCNC1=O)[C@H](F)C3 [Compound 118, (1S,2R,3S,6R,7S,9R)—N-[(1S)-1-cyano-2-[(2S)-3-oxomorpholin-2-yl]ethyl]-4-[(2S)-3,3-dimethyl-2-(2,2,3,3,3-pentafluoropropanamido)butanoyl]-9-fluoro-4-azatricyclo[5.2.1.0^{2,6}]decane-3-carboxamide]
IC50 (SARS-Cov-2 3CLpro): < 20 nM | IC50 (HRV3C): > 500 nM | EC50 [1]: < 100 nM | EC50 [2]: < 100 nM

C[C@@H](OC1CC1)[C@H](NC(=O)C(F)(F)C(F)(F)F)C(=O)N1C[C@H]2[C@@H]([C@H]1C(=O)N[C@H](C#N)C[C@@H]1CCNC1=O)[C@H]1C=C[C@@H]2C1 [Compound 101, (1S,3aR,4S,7R,7aS)-N-((S)-1-cyano-2-((S)-2-oxopyrrolidin-3-yl)ethyl)-2-(O-cyclopropyl-N-(2,2,3,3,3-pentafluoropropanoyl)-L-threonyl)-2,3,3a,4,7,7a-hexahydro-1H-4,7-methanoisoindole-1-carboxamide]
IC50 (SARS-Cov-2 3CLpro): < 20 nM | IC50 (HRV3C): > 500 nM | EC50 [1]: < 100 nM | EC50 [2]: < 100 nM

CC(C)(C)[C@H](NC(=O)CC(F)(F)F)C(=O)N1C[C@H]2[C@@H]([C@H]1C(=O)N[C@H](C#N)C[C@@H]1Oc3ccncc3NC1=O)[C@H]1C=C[C@@H]2C1 [Compound 110, (1S,3aR,4S,7R,7aS)-N-((S)-1-cyano-2-((S)-3-oxo-3,4-dihydro-2H-pyrido[4,3-b][1,4]oxazin-2-yl)ethyl)-2-((S)-3,3-dimethyl-2-(3,3,3-trifluoropropanamido)butanoyl)-2,3,3a,4,7,7a-hexahydro-1H-4,7-methanoisoindole-1-carboxamide]
IC50 (SARS-Cov-2 3CLpro): < 20 nM | IC50 (HRV3C): > 500 nM | EC50 [1]: < 100 nM | EC50 [2]: < 100 nM

CC(C)(C)[C@H](NC(=O)C(F)(F)F)C(=O)N1C[C@H]2[C@@H]([C@H]1C(=O)N[C@H](C#N)C[C@@H]1CCNC1=O)[C@H]1C=C[C@@H]2C1=O [Example 89, (1R,2R,3S,6S,7S)—N-[(1S)-1-cyano-2-[(3S)-2-oxopyrrolidin-3-yl]ethyl]-4-[(2S)-3,3-dimethyl-2-(2,2,2-trifluoroacetamido)butanoyl]-10-oxo-4-azatricyclo[5.2.1.0^{2,6}]dec-8-ene-3-carboxamide]
IC50 (SARS-Cov-2 3CLpro): < 20 nM | IC50 (HRV3C): > 10000 nM | EC50 [1]: 100 to 1000 nM | EC50 [2]: 100 to 1000 nM

CC(C)(C)[C@H](NC(=O)C(F)(F)F)C(=O)N1C[C@H]2[C@@H]([C@H]1C(=O)N[C@H](C#N)C[C@@H]1Oc3cccnc3NC1=O)[C@H]1C=C[C@@H]2C1 [Compound 112, (1S,3aR,4S,7R,7aS)-N-((S)-1-cyano-2-((S)-3-oxo-3,4-dihydro-2H-pyrido[3,2-b][1,4]oxazin-2-yl)ethyl)-2-((S)-3,3-dimethyl-2-(2,2,2-trifluoroacetamido)butanoyl)-2,3,3a,4,7,7a-hexahydro-1H-4,7-methanoisoindole-1-carboxamide]
IC50 (SARS-Cov-2 3CLpro): < 20 nM | IC50 (HRV3C): > 500 nM | EC50 [1]: 100 to 1000 nM | EC50 [2]: < 100 nM

CC(C)(C)[C@H](NC(=O)C(F)(F)Cl)C(=O)N1C[C@H]2[C@@H]([C@H]1C(=O)N[C@H](C#N)C[C@@H]1OCCNC1=O)[C@H]1C=C[C@@H]2C1 [Compound 116]
IC50 (SARS-Cov-2 3CLpro): < 20 nM | IC50 (HRV3C): > 500 nM | EC50 [1]: < 100 nM | EC50 [2]: < 100 nM

C[C@@H](OC(F)F)[C@H](NC(=O)C(F)(F)F)C(=O)N1C[C@H]2[C@@H]([C@H]1C(=O)N[C@H](C#N)C[C@@H]1CCNC1=O)[C@H]1C=C[C@@H]2C1 [Example 98, (1S,3aR,4S,7R,7aS)-N-((S)-1-cyano-2-((S)-2-oxopyrrolidin-3-yl)ethyl)-2-(O-(difluoromethyl)-N-(2,2,2-trifluoroacetyl)-L-threonyl)-2,3,3a,4,7,7a-hexahydro-1H-4,7-methanoisoindole-1-carboxamide]
IC50 (SARS-Cov-2 3CLpro): < 20 nM | IC50 (HRV3C): > 500 nM | EC50 [1]: < 100 nM | EC50 [2]: < 100 nM

CC(C)([C@H](NC(=O)C(F)(F)F)C(=O)N1C[C@H]2[C@@H]([C@H]1C(=O)N[C@H](C#N)C[C@@H]1CCNC1=O)[C@H]1C=C[C@@H]2C1)C(F)(F)F [Compound 102a, (1S,3aR,4S,7R,7aS)-N-((S)-1-cyano-2-((S)-2-oxopyrrolidin-3-yl)ethyl)-2-((S)-4,4,4-trifluoro-3,3-dimethyl-2-(2,2,2-trifluoroacetamido)butanoyl)-2,3,3a,4,7,7a-hexahydro-1H-4,7-methanoisoindole-1-carboxamide]
IC50 (SARS-Cov-2 3CLpro): < 20 nM | IC50 (HRV3C): > 500 nM | EC50 [1]: < 100 nM | EC50 [2]: < 100 nM

[2H]C([2H])([2H])C([C@H](NC(=O)C(F)(F)F)C(=O)N1C[C@H]2[C@@H]([C@H]1C(=O)N[C@H](C#N)C[C@@H]1CCNC1=O)[C@H]1C=C[C@@H]2C1)(C([2H])([2H])[2H])C([2H])([2H])[2H] [Compound 124]
IC50 (SARS-Cov-2 3CLpro): < 20 nM | IC50 (HRV3C): > 500 nM
